Experimental data from patent US12336981B2, “Compounds and compositions for the inhibition of NAMPT” (Valo Health, Inc., priority 2010, dated 2025).
Where “and” joins values, the source holds several entries; their conditions need not be identical. Identical values can stand only once. Like-named read-outs stand apart in the source and are kept apart here.

Key:
NAMPT = molecular target: T1, NAMPT (Homo sapiens, UniProt P43490); assay: Biochemical inhibition assay: NAMPT enzymatic reaction, NMN quantified by mass spectrometry; details: read-out: Biochem IC50
T1 construct: His tag; host or cells: E. coli
Procedure, shortened: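 Inhibition of E. coli-expressed His-tagged human NAMPT, measured as NMN formation by mass spectrometry after a 30 min room-temperature reaction containing 1 μM NAM, 100 μM PRPP and 2.5 mM ATP.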

A2780 cells = assay: In-vitro cell proliferation assay (SRB), A2780 cells; type: cell-based; details: Homo sapiens, A2780, 72 h, A2780 cells, 72 hours, read-out: A2780 IC50
Procedure, shortened: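 Growth inhibition was derived from background-corrected SRB absorbance (570 nm), measured on cells fixed in 6% TCA after three days of compound treatment under 5% CO2 at 37° C.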

T1 sequence (P43490 whole entry): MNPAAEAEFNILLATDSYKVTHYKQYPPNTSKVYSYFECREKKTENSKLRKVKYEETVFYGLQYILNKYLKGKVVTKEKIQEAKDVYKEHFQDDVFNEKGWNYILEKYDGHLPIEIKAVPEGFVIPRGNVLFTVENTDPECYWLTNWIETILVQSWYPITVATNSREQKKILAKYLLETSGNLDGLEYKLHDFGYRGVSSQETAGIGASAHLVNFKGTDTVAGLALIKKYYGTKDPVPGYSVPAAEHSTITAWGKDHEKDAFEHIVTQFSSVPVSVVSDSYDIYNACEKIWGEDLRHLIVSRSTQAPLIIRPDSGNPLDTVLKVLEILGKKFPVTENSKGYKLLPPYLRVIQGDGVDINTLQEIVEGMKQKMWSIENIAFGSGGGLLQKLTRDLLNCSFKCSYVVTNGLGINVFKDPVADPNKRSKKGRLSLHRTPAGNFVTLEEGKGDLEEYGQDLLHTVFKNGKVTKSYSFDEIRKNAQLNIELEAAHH

SMILES | IC50 (NAMPT; NAMPT enzymatic assay) | IC50 (A2780 cells; SRB) [nM] | IC50 (NAMPT; NAMPT enzymatic reaction) [nM] | IC50 (A2780 cells; SRB assay) [nM]
Cc1cc(C)n(-c2cccc(S(=O)(=O)c3ccc(CNC(=O)c4ccc5nccn5c4)cc3)c2)n1 | 7.2 nM | 0.8 | – | –
O=C(NCc1ccc(S(=O)(=O)c2ccc(N3CCOCC3)nc2)cc1)c1cc2ccncc2o1 [N-({4-[6-(morpholin-4-yl)pyridine-3-sulfonyl]phenyl}methyl)furo[2,3-c]pyridine-2-carboxamide] | 2 nM | 0.9 | – | –
Cn1ncc2cccc(S(=O)(=O)c3ccc(CNC(=O)c4cnc5[nH]ncc5c4)cc3)c21 [N-{[4-(1-methyl-1H-indazole-7-sulfonyl)phenyl]methyl}-1H-pyrazolo[3,4-b]pyridine-5-carboxamide] | 91.8 nM | 86.9 | – | –
O=C(NCc1ccc(S(=O)(=O)c2cc(Cl)ccc2O)cc1)c1ccc2nccn2c1 [N-({4-[(5-chloro-2-hydroxybenzene)sulfonyl]phenyl}methyl)imidazo[1,2-a]pyridine-6-carboxamide] | – | 168 | 14 | –
CCOc1cccc(S(=O)(=O)c2ccc(CNC(=O)c3cc4ccncc4o3)cc2)c1F | – | 22.7 | 17.5 | –
O=C(NCc1ccc(S(=O)(=O)c2nccs2)cc1)c1cc2ccncc2o1 [N-{[4-(1,3-thiazole-2-sulfonyl)phenyl]methyl}furo[2,3-c]pyridine-2-carboxamide] | 19.8 nM | 78.6 | – | –
Cc1cccc(S(=O)(=O)c2ccc(CNC(=O)c3cc4ccncc4o3)cc2)n1 [N-{[4-(6-methylpyridine-2-sulfonyl)phenyl]methyl}furo[2,3-c]pyridine-2-carboxamide] | 12.8 nM | 12.5 | – | –
O=C(NCc1ccc(S(=O)(=O)c2ccc(-n3cccn3)c(F)c2)cc1)c1cnc2[nH]ncc2c1 | 13.1 nM | 3.3 | – | –
O=C(NCc1ccc(S(=O)(=O)c2csc(-c3cccc(F)c3)n2)cc1)c1cc2cnccc2[nH]1 [N-({4-[2-(3-fluorophenyl)-1,3-thiazole-4-sulfonyl]phenyl}methyl)-1H-pyrrolo[3,2-c]pyridine-2-carboxamide] | 19.2 nM | 23.2 | – | –
O=C(NCc1ccc(S(=O)(=O)c2cccc3ccccc23)cc1)c1cc2ccncc2s1 [N-{[4-(naphthalene-1-sulfonyl)phenyl]methyl}thieno[2,3-c]pyridine-2-carboxamide] | – | – | 2 | 0.5
CCOCc1ccccc1S(=O)(=O)c1ccc(CNC(=O)c2cnc3nccn3c2)cc1 | 3.7 nM | 39.6 | – | –
CCN(CC)C(=O)c1cc(Cl)cc(S(=O)(=O)c2ccc(CNC(=O)c3cnc4nccn4c3)cc2)c1 | 0.9 nM | 1.2 | – | –
COc1ccc(C)cc1S(=O)(=O)c1ccc(CNC(=O)c2cnc3[nH]ncc3c2)cc1 [N-({4-[(2-methoxy-5-methylbenzene)sulfonyl]phenyl}methyl)-1H-pyrazolo[3,4-b]pyridine-5-carboxamide] | – | 24.4 | 56.3 | –
Cc1cc(C)c(S(=O)(=O)c2ccc(CNC(=O)c3cnc4[nH]ncc4c3)cc2)c(C)c1 [N-({4-[(2,4,6-trimethylbenzene)sulfonyl]phenyl}methyl)-1H-pyrazolo[3,4-b]pyridine-5-carboxamide] | – | 100 to 1000 | 136 | –
O=C(NCc1ccc(S(=O)(=O)c2cccc(-n3cccn3)c2)cc1)c1cc2cnccc2[nH]1 [N-[(4-{[3-(1H-pyrazol-1-yl)benzene]sulfonyl}phenyl)methyl]-1H-pyrrolo[3,2-c]pyridine-2-carboxamide] | 9.7 nM | 7.4 | – | –
COc1ccc(F)cc1NS(=O)(=O)c1ccc(CNC(=O)c2cc3cnccc3[nH]2)cc1 [N-({4-[(5-fluoro-2-methoxyphenyl)sulfamoyl]phenyl}methyl)-1H-pyrrolo[3,2-c]pyridine-2-carboxamide] | – | – | 232 | > 30000
Cn1ncc2c(S(=O)(=O)c3ccc(CNC(=O)c4ccc5nccn5c4)cc3)cccc21 [N-{[4-(1-methyl-1H-indazole-4-sulfonyl)phenyl]methyl}imidazo[1,2-a]pyridine-6-carboxamide] | 12.5 nM | 3 | – | –
Cc1cccc(S(=O)(=O)c2ccc(CNC(=O)c3cc4ccncc4o3)cc2)c1F [N-({4-[(2-fluoro-3-methylbenzene)sulfonyl]phenyl}methyl)furo[2,3-c]pyridine-2-carboxamide] | – | 7.9 | 6.3 | –
Cc1cccc(S(=O)(=O)c2ccc(CNC(=O)c3cc4cnccc4[nH]3)cc2)c1C [N-({4-[(2,3-dimethylbenzene)sulfonyl]phenyl}methyl)-1H-pyrrolo[3,2-c]pyridine-2-carboxamide] | 14 nM | 7 | – | –
O=C(NCc1ccc(S(=O)(=O)c2cncc3ccccc23)cc1)c1cnc2[nH]ncc2c1 [N-{[4-(isoquinoline-4-sulfonyl)phenyl]methyl}-1H-pyrazolo[3,4-b]pyridine-5-carboxamide] | 3.7 nM | 2.5 | – | –
O=C(NCc1ccc(S(=O)(=O)c2ccc(C(F)(F)F)cc2OCC(F)(F)F)cc1)c1ccc2nccn2c1 [N-[(4-{[2-(2,2,2-trifluoroethoxy)-4-(trifluoromethyl)benzene]sulfonyl}phenyl)methyl]imidazo[1,2-a]pyridine-6-carboxamide] | 7 nM | 1.2 | – | –
N#Cc1ccccc1S(=O)(=O)c1ccc(CNC(=O)c2cc3ccncc3o2)cc1 [N-({4-[(2-cyanobenzene)sulfonyl]phenyl}methyl)furo[2,3-c]pyridine-2-carboxamide] | – | 63.5 | 24.6 | –

SMILES | IC50 (NAMPT; NAMPT enzymatic assay) | IC50 (A2780 cells; SRB) [nM] | IC50 (NAMPT; NAMPT enzymatic reaction) [nM] | IC50 (A2780 cells; SRB assay) [nM]
O=C(NCc1ccc(S(=O)(=O)c2cccc(N3CCOCC3)c2)cc1)c1cc2cc(O)ccc2[nH]1 | – | 1000 to 10000 | 100 to 1000 | –
O=C(NCc1ccc(S(=O)(=O)c2ccc(N3CCCC3)cc2)cc1)c1ccc2cn[nH]c2n1 | 6 nM | 4.5 | – | –
CC(C)Oc1ccc(S(=O)(=O)c2ccc(CNC(=O)c3cc4ccncc4o3)cc2)cc1 | 6.8 nM | 5.7 | – | –
O=C(NCc1ccc(S(=O)(=O)c2cccc3ccccc23)cc1)c1cnc2nccn2c1 [N-{[4-(naphthalene-1-sulfonyl)phenyl]methyl}imidazo[1,2-a]pyrimidine-6-carboxamide] | 2.9 nM | 3.6 | – | –
Cc1cncc(S(=O)(=O)c2ccc(CNC(=O)c3ccc4nccn4c3)cc2)c1 [N-{[4-(5-methylpyridine-3-sulfonyl)phenyl]methyl}imidazo[1,2-a]pyridine-6-carboxamide] | 36.8 nM | 7.1 | – | –
O=C(NCc1ccc(S(=O)(=O)c2nccs2)cc1)c1ccc2nccn2c1 [N-{[4-(1,3-thiazole-2-sulfonyl)phenyl]methyl}imidazo[1,2-a]pyridine-6-carboxamide] | 21 nM | 99.4 | – | –
O=C(NCc1ccc(S(=O)(=O)c2cccc(-c3ccc(F)c(F)c3)n2)cc1)c1cnc2[nH]ncc2c1 [N-({4-[6-(3,4-difluorophenyl)pyridine-2-sulfonyl]phenyl}methyl)-1H-pyrazolo[3,4-b]pyridine-5-carboxamide] | 17.8 nM | 41 | – | –
Cc1ccc(S(=O)(=O)c2ccc(CNC(=O)c3cc4ccncc4o3)cc2)c(F)c1 | – | 25.3 | 12.3 | –
CCOc1ccc(S(=O)(=O)c2ccc(CNC(=O)c3cnc4[nH]ncc4c3)cc2)cc1 | – | 8.4 | 15.1 | –
CCOc1cc(Cl)ccc1S(=O)(=O)c1ccc(CNC(=O)c2cc3ccncc3s2)cc1 | – | < 0.4 | 2.4 | –
COc1ccc2cc(S(=O)(=O)c3ccc(CNC(=O)c4ccc5nccn5c4)cc3)ccc2c1 [N-{[4-(6-methoxynaphthalene-2-sulfonyl)phenyl]methyl}imidazo[1,2-a]pyridine-6-carboxamide] | 2.7 nM | 1.8 | – | –
O=C(NCc1ccc(S(=O)(=O)N2CCCCC2)cc1)c1ccn2nnnc2c1 [N-{[4-(piperidine-1-sulfonyl)phenyl]methyl}-[1,2,3,4]tetrazolo[1,5-a]pyridine-7-carboxamide] | – | – | 3 | 9
Cc1nc(C)c(S(=O)(=O)c2ccc(CNC(=O)c3cnc4nccn4c3)cc2)s1 [N-{[4-(dimethyl-1,3-thiazole-5-sulfonyl)phenyl]methyl}imidazo[1,2-a]pyrimidine-6-carboxamide] | 3.7 nM | 49.5 | – | –
CCNC(=O)c1ccc(S(=O)(=O)c2ccc(CNC(=O)c3cnc4[nH]ncc4c3)cc2)cc1 [N-[(4-{[4-(ethylcarbamoyl)benzene]sulfonyl}phenyl)methyl]-1H-pyrazolo[3,4-b]pyridine-5-carboxamide] | 103 nM | 96.8 | – | –
Cc1ccc(S(=O)(=O)c2ccc(CNC(=O)c3ccc4nccn4c3)cc2)c(Cl)c1 | – | 0.9 | 1.1 | –
Cc1ccc(S(=O)(=O)c2ccc(CNC(=O)c3cc4ccncc4o3)cc2)cc1Cl | – | 1.7 | 52.8 | –
O=C(NCc1ccc(S(=O)(=O)c2cc(F)ccc2CO)cc1)c1cc2ccncc2s1 | 7.7 nM | 24.9 | – | –
Cc1cc(S(=O)(=O)c2ccc(CNC(=O)c3cc4ccncc4s3)cc2)c(C)cc1F [N-({4-[(4-fluoro-2,5-dimethylbenzene)sulfonyl]phenyl}methyl)thieno[2,3-c]pyridine-2-carboxamide] | – | 13.6 | 4.2 | –
COc1cc(OC)cc(S(=O)(=O)c2ccc(CNC(=O)c3cnc4nccn4c3)cc2)c1 [N-({4-[(3,5-dimethoxybenzene)sulfonyl]phenyl}methyl)imidazo[1,2-a]pyrimidine-6-carboxamide] | – | 1.6 | 2.4 | –
O=C(NCc1ccc(S(=O)(=O)c2cccc(N3CCOCC3)c2)cc1)c1cc2ccncc2s1 | 4 nM and 3.6 nM | 1.9 | – | –
COc1cc(F)c(F)cc1S(=O)(=O)c1ccc(CNC(=O)c2cc3ccncc3s2)cc1 [N-({4-[(4,5-difluoro-2-methoxybenzene)sulfonyl]phenyl}methyl)thieno[2,3-c]pyridine-2-carboxamide] | – | – | 5 | 2.9
